Measured values reported in patent US20250134102A1, “USE OF FLAVONOID GLYCOSIDE IN RESISTANCE OF WEEDS IN RICE” (INSTITUTE OF BOTANY, THE CHINESE ACADEMY OF SCIENCE, priority 2021, published 2025).

Key:
Echinochloa crus-galli = assay: External application of the compound to Echinochloa crus-galli seeds on agar medium, radicle and embryo length; format: in vivo; conditions: 500 mg/L in 0.8% agar, 28° C., 3 days in the dark, 3 biological repeats
Experimental: I. Procedures for External Application of the Compound to Lettuce and Echinochloa crus-galli Compounds to be tested: isoorientin and isoorientin-2″-O-glucopyranoside. (1) The compounds to be tested were dried into powder with a centrifugal concentrator and weighed, a proper amount of sterile water was added to make its final concentration to be 10 mg/mL. (2) 500 mL of 0.8% agar was prepared and sterilized in an autoclave. […] solution of the compounds to be tested at a concentration of 10 mg/mL were added to make the final concentration of the compounds to be 500 mg/L. The medium containing the compound to be tested was quickly poured into a 10 cm×10 cm square dish, and the square dish was shaken quickly so that the medium was evenly spread in the square dish. The medium added with equal amount of sterile water was used as control. (4) The seeds of Echinochloa crus-galli were washed with distilled water for several times, and then placed on sterile filter paper to dry. (5) After the medium had solidified, the seeds of Echinochloa crus-galli were placed with sterile tweezers on the medium, and 26 seeds were placed in each petri dish (2 rows, with 13 seeds in each row). Each treatment had 3 biological repeats. (6) The petri dishes were placed in an incubator at 28° C. for 3 days in the dark. (7) Phenotypic statistics: after 3 days, the length of radicle and embryo of each treated material were counted.

[1] = test system: Os02g0589400 recombinant protein; assay: In vitro enzymatic activity of Os02g0589400 (glycosylation of isoorientin with UDPG, UPLC-QTOF/MS); format: biochemical, Oryza sativa L. ssp. japonica cv. Zhonghua 11 (ZH11); conditions: glycosyl donor UDPG, Tris-HCl pH 7.0, 30° C., 1 hour
Experimental: The enzymatic activity reaction system was: 38 μL of Tris-HCl (pH 7.0, 50 mM, containing 10 mM DTT), 1 μL of 10 mM glycosyl receptor (the glycosyl receptor of Os02g0589400 is isoorientin), 1 μL of 100 mM glycosyl donor (UDPG), and 10 μL of 2.03 μg/μL of recombinant protein of Os02g0589400 obtained in (2). React in water bath at 30° C. for 1 hour, and then stop the reaction with equal volume of methanol. A sample containing protein obtained from E. coli into which a pMAL-c2X mock vector was transferred according to the above step (2) was taken as the negative control. Centrifuge at 12,000 rpm, 4° C. for 10 min, 30 μL of the resulting supernatant was taken and measured by UPLC-QTOF/MS, and the measuring method was the same as that shown in Example 1.

## O=c1cc(-c2ccc(O)c(O)c2)oc2cc(O)c([C@@H]3O[C@H](CO)[C@@H](O)[C@H](O)[C@H]3O[C@@H]3O[C@H](CO)[C@@H](O)[C@H](O)[C@H]3O)c(O)c12 [isoorientin-2″-O-glucopyranoside]
Echinochloa crus-galli
  embryo length of Echinochloa crus-galli compared with the control: no significant difference
  radicle length of Echinochloa crus-galli compared with the control: no significant difference

## O=c1cc(-c2ccc(O)c(O)c2)oc2cc(O)c([C@@H]3O[C@H](CO)[C@@H](O)[C@H](O)[C@H]3O)c(O)c12 [isoorientin]
[1]
  glycosylation of the glycosyl receptor by Os02g0589400 recombinant protein compared with the mock control: could catalyze isoorientin to produce isoorientin-2″-O-glucopyranoside
Echinochloa crus-galli
  embryo length of Echinochloa crus-galli compared with the control: no significant difference
  radicle length of Echinochloa crus-galli compared with the control: significantly shortened
